# Article PMC2688680, “Identification, expression and characterisation of a Babesia bovis hexose transporter” (Molecular and Biochemical Parasitology, 2008)
# B1: B. bovis hexose transporter 1 (BboHT1) (Babesia bovis) (protein)
# chain: MRSYFVYALALGALVAFNFGLNTVSFVASREFAVMDLGWCAGQDKLYECSRASTYSDIIAAGTFIGGAVGSLLIGYFAKFGRRKGMLIIHIINVIGSCMSTSASCFTMFLLGRLIAGVSVGASGVVAIYLSEICTNESRGKFGIVYPLFICIGQFLMVAWQLLHGRILGADNKVVTMDDLKTFDKFVWRMAQFWPVVFSIIAVVIMVFIVTDDTPYVLLNEGKEEEARSVISKLHGEENADAITAELKADIEAQKANSDKLSLLEALKVAQYRKVIFICCGLGIVQQFSGINIFVANASTLFISIMGRTVIANVMGLVGILCLMVTMISLSFFIEKFGRKTLLLAGIFVSSVFMVPAVIIKLAAGKDAKWAEYIMVTGCMGFMVGFAIGLGGVMWLYLAEAMGAEYKDAGFGLATCANWLFAAIVVMTSGMLIKFNENFTYALYAGFGVLGFVYVALLIKETKGIPLGQAYA
# notes: full-length, 472 amino acid residues, Israel isolate, expressed in Xenopus laevis oocytes
# Experiments:
# [1] = target: T1, B. bovis hexose transporter 1 (BboHT1) (Babesia bovis, UniProt B0LKY8); test: competition with […]D-glucose uptake in Xenopus oocytes at […] ([…] reduction); format: cell-based
# T1 construct: full-length, 472 amino acid residues, Israel isolate, expressed in Xenopus laevis oocytes
# [2] = target: T1, B. bovis hexose transporter 1 (BboHT1); test: radiotracer D-fructose uptake in Xenopus oocytes versus water-injected controls; format: cell-based
# [3] = target: T1, B. bovis hexose transporter 1 (BboHT1); test: inhibition of […]D-glucose uptake in Xenopus oocytes expressing BboHT1; format: cell-based
# [4] = substrate: OC[C@H]1OC(O)[C@H](O)[C@@H](O)[C@@H]1O; test: radiotracer D-glucose influx kinetics in Xenopus oocytes (Km); format: cell-based, Babesia bovis; conditions: hydroxyl positions at O-4 and O-6 important for ligand binding
molecule,measurement,setting,value
"OC[C@H]1OC[C@H](O)[C@@H](O)[C@@H]1O [1-DOG, 1-deoxy-D-glucose]",competition with [14C]D-glucose uptake in Xenopus oocytes at 10 mM (>50% reducti),[1],"1-Deoxy-D-glucose, 2-deoxy-D-glucose, D-mannose (the 2-epimer of glucose), 3-deoxy-D-glucose, and 3-O-methyl-D-glucose all reduced D-glucose uptake via BboHT1"
"OC[C@H]1OC(O)C[C@@H](O)[C@@H]1O (stereo partly drawn) [2-DOG, 2-deoxy-D-glucose]",competition with [14C]D-glucose uptake in Xenopus oocytes at 10 mM (>50% reducti),[1],"1-Deoxy-D-glucose, 2-deoxy-D-glucose, D-mannose (the 2-epimer of glucose), 3-deoxy-D-glucose, and 3-O-methyl-D-glucose all reduced D-glucose uptake via BboHT1"
OC[C@H]1OC(O)(CO)[C@@H](O)[C@@H]1O (stereo partly drawn) [D-fructose],radiotracer D-fructose uptake in Xenopus oocytes versus water-injected controls,[2],D-Fructose uptake also increased in oocytes expressing BboHT1 when compared with uptake in water-injected controls
"C=CCCCCCCCCCO[C@H]1[C@H](O)[C@@H](CO)OC(O)[C@@H]1O (stereo partly drawn) [compound 3361, 3-O-(undec-10-en)-yl-D-glucose]",Ki,[3],4.1 ± 0.9 µM
B1,Km,[4],840 ± 540 µM
